test system: G3BP1 NFT2; type: binding, human; settings: library DMS-CoV; bait G3BP1 NFT2; prey N; peptide APRITFGGPSDSTGSN; listed as aa = residue placed at this position; column sums to 1

Sequence | DMS PSSM value, S (position 15) | DMS PSSM value, I (position 4) | DMS PSSM value, A (position 1) | DMS PSSM value, S (position 12) | DMS PSSM value, R (position 3) | DMS PSSM value, P (position 2) | DMS PSSM value, G (position 7) | DMS PSSM value, T (position 13) | DMS PSSM value, F (position 6) | DMS PSSM value, D (position 11)
APRITFGGPSDSTGSN S15F (APRITFGGPSDSTGFN) | 0.2174 |  |  |  |  |  |  |  |  | 
APRITFGGPSDSTGSN I4L (APRLTFGGPSDSTGSN) |  | 0 |  |  |  |  |  |  |  | 
APRITFGGPSDSTGSN A1N (NPRITFGGPSDSTGSN) |  |  | 0.016 |  |  |  |  |  |  | 
APRITFGGPSDSTGSN S12M (APRITFGGPSDMTGSN) |  |  |  | 0.01193 |  |  |  |  |  | 
APRITFGGPSDSTGSN R3H (APHITFGGPSDSTGSN) |  |  |  |  | 0.008447 |  |  |  |  | 
APRITFGGPSDSTGSN S15A (APRITFGGPSDSTGAN) | 0.001992 |  |  |  |  |  |  |  |  | 
APRITFGGPSDSTGSN P2H (AHRITFGGPSDSTGSN) |  |  |  |  |  | 0 |  |  |  | 
APRITFGGPSDSTGSN A1Y (YPRITFGGPSDSTGSN) |  |  | 0.04618 |  |  |  |  |  |  | 
APRITFGGPSDSTGSN P2D (ADRITFGGPSDSTGSN) |  |  |  |  |  | 0.06205 |  |  |  | 
APRITFGGPSDSTGSN G7V (APRITFVGPSDSTGSN) |  |  |  |  |  |  | 0 |  |  | 
APRITFGGPSDSTGSN T13V (APRITFGGPSDSVGSN) |  |  |  |  |  |  |  | 0.7895 |  | 
APRITFGGPSDSTGSN P2L (ALRITFGGPSDSTGSN) |  |  |  |  |  | 0 |  |  |  | 
APRITFGGPSDSTGSN G7I (APRITFIGPSDSTGSN) |  |  |  |  |  |  | 0 |  |  | 
APRITFGGPSDSTGSN F6G (APRITGGGPSDSTGSN) |  |  |  |  |  |  |  |  | 0 | 
APRITFGGPSDSTGSN R3W (APWITFGGPSDSTGSN) |  |  |  |  | 0.01451 |  |  |  |  | 
APRITFGGPSDSTGSN I4V (APRVTFGGPSDSTGSN) |  | 0.03242 |  |  |  |  |  |  |  | 
APRITFGGPSDSTGSN I4S (APRSTFGGPSDSTGSN) |  | 0 |  |  |  |  |  |  |  | 
APRITFGGPSDSTGSN A1D (DPRITFGGPSDSTGSN) |  |  | 0.5313 |  |  |  |  |  |  | 
APRITFGGPSDSTGSN F6A (APRITAGGPSDSTGSN) |  |  |  |  |  |  |  |  | 0 | 
APRITFGGPSDSTGSN R3I (APIITFGGPSDSTGSN) |  |  |  |  | 0.2843 |  |  |  |  | 

Sequence | DMS PSSM value, S (position 15) | DMS PSSM value, I (position 4) | DMS PSSM value, A (position 1) | DMS PSSM value, S (position 12) | DMS PSSM value, R (position 3) | DMS PSSM value, P (position 2) | DMS PSSM value, G (position 7) | DMS PSSM value, T (position 13) | DMS PSSM value, F (position 6) | DMS PSSM value, D (position 11)
APRITFGGPSDSTGSN D11P (APRITFGGPSPSTGSN) |  |  |  |  |  |  |  |  |  | 0.007134
APRITFGGPSDSTGSN I4P (APRPTFGGPSDSTGSN) |  | 0 |  |  |  |  |  |  |  | 
APRITFGGPSDSTGSN P2S (ASRITFGGPSDSTGSN) |  |  |  |  |  | 0.0005858 |  |  |  | 
APRITFGGPSDSTGSN I4A (APRATFGGPSDSTGSN) |  | 0 |  |  |  |  |  |  |  | 
APRITFGGPSDSTGSN I4F (APRFTFGGPSDSTGSN) |  | 0 |  |  |  |  |  |  |  | 
APRITFGGPSDSTGSN S12Q (APRITFGGPSDQTGSN) |  |  |  | 0.01405 |  |  |  |  |  | 
APRITFGGPSDSTGSN T13S (APRITFGGPSDSSGSN) |  |  |  |  |  |  |  | 9.878e-5 |  | 
APRITFGGPSDSTGSN S12L (APRITFGGPSDLTGSN) |  |  |  | 0.001118 |  |  |  |  |  | 
APRITFGGPSDSTGSN R3T (APTITFGGPSDSTGSN) |  |  |  |  | 0.001362 |  |  |  |  | 
APRITFGGPSDSTGSN G7R (APRITFRGPSDSTGSN) |  |  |  |  |  |  | 0 |  |  | 
APRITFGGPSDSTGSN T13E (APRITFGGPSDSEGSN) |  |  |  |  |  |  |  | 0.0383 |  | 
APRITFGGPSDSTGSN D11V (APRITFGGPSVSTGSN) |  |  |  |  |  |  |  |  |  | 0.02861
APRITFGGPSDSTGSN G7D (APRITFDGPSDSTGSN) |  |  |  |  |  |  | 0 |  |  | 
APRITFGGPSDSTGSN F6T (APRITTGGPSDSTGSN) |  |  |  |  |  |  |  |  | 0 | 
APRITFGGPSDSTGSN D11Q (APRITFGGPSQSTGSN) |  |  |  |  |  |  |  |  |  | 0.007406
APRITFGGPSDSTGSN S15P (APRITFGGPSDSTGPN) | 0.1504 |  |  |  |  |  |  |  |  | 
APRITFGGPSDSTGSN I4D (APRDTFGGPSDSTGSN) |  | 0 |  |  |  |  |  |  |  | 
APRITFGGPSDSTGSN F6N (APRITNGGPSDSTGSN) |  |  |  |  |  |  |  |  | 0 | 
APRITFGGPSDSTGSN S15Q (APRITFGGPSDSTGQN) | 0.01454 |  |  |  |  |  |  |  |  | 
APRITFGGPSDSTGSN A1L (LPRITFGGPSDSTGSN) |  |  | 0.0004523 |  |  |  |  |  |  | 

same assay, conditions: library DMS-CoV; bait G3BP1 NFT2; prey N; peptide APRITFGGPSDSTGSN; listed as aa = residue placed at this position; column sums to 1

Sequence | DMS PSSM value, P (position 9) | DMS PSSM value, G (position 14) | DMS PSSM value, T (position 5) | DMS PSSM value, S (position 10)
APRITFGGPSDSTGSN P9K (APRITFGGKSDSTGSN) | 0 |  |  | 
APRITFGGPSDSTGSN G14D (APRITFGGPSDSTDSN) |  | 0.0004838 |  | 
APRITFGGPSDSTGSN P9A (APRITFGGASDSTGSN) | 0.001999 |  |  | 
APRITFGGPSDSTGSN T5P (APRIPFGGPSDSTGSN) |  |  | 0 | 
APRITFGGPSDSTGSN G14K (APRITFGGPSDSTKSN) |  | 0.00039 |  | 
APRITFGGPSDSTGSN S10E (APRITFGGPEDSTGSN) |  |  |  | 0.06961
APRITFGGPSDSTGSN G14R (APRITFGGPSDSTRSN) |  | 0.002725 |  | 
APRITFGGPSDSTGSN S10F (APRITFGGPFDSTGSN) |  |  |  | 0.001618
APRITFGGPSDSTGSN P9H (APRITFGGHSDSTGSN) | 0 |  |  | 

Reference: PMC12102759 (Protein Science : A Publication of the Protein Society, 2025)
